From paper PMC8556085, “Antimicrobial and Antioxidant Secondary Metabolites from Trifolium baccarinii Chiov. (Fabaceae) and Their Mechanisms of Antibacterial Action” (BioMed Research International, 2021) come the findings set out here.

Test [1] is described as follows: DPPH free radical scavenging assay. The settings on record: for DPPH free radical scavenging activity (EC50): mean ± SD. The method, then:
The free radical scavenging activity of extracts and compounds was evaluated according to the described method. The EC50 (μg/mL), which is the amount of sample necessary to inhibit by 50% the absorbance of free radical DPPH, was calculated. Vitamin C was used as a standard control. All the analyses were carried out in triplicate and repeated three times.
A general note: Loss of DPPH colour is used to gauge radical scavenging.

A short description of test [2]: Gallic acid equivalent antioxidant capacity (GEAC) assay. The note with it: for Gallic acid equivalent antioxidant capacity (GEAC): ABTS radical, 420 nm, 240 s, mean ± SD. The method, then: The GEAC test was performed as described previously with some slight modifications. The laccase was purified from Sclerotinia sclerotiorum according to the described protocol. 20 μL of laccase (1 mM stock solution), 20 μL of test sample, 10 μL of ABTS (2,2′-azino-bis(3-ethylbenzothiazoline-6-sulfonic acid) (74 mM stock solution), and 950 μL of acetate buffer (pH = 5.0, 100 mM) were added in a quartz cuvette. The concentrations of the samples in the assay mixture were 800, 400, 200, 100, and 10 μg/mL for the extracts and 200, 100, 50, 25, and 12.5 μg/mL for the isolated compounds. The content of the generated ABTS^●+ radical was measured at 420 nm after 240 s reaction time and was converted to gallic acid equivalents by the use of a calibration curve (Pearson's correlation coefficient: r = 0.998) constructed with 0, 4, 10, 14, 28, 56, and 84 μM gallic acid standards rather than Trolox. Experiments were done in triplicate and repeated three times with similar results.

For test [3], the system named is methicillin-resistant Staphylococcus aureus 03 (MRSA03). Briefly: Broth microdilution MIC/MMC. Type of test: cell-based. The note with it: for MBC / MIC: Staphylococcus aureus; for MIC: MRSA03, 24 h, 37°C, read-out: MIC. The method, then: (§1) The antimicrobial activity was performed against five bacterial and two fungal species. The selected microorganisms were the Gram-positive (Staphylococcus aureus ATCC25923, methicillin-resistant Staphylococcus aureus 03 (MRSA03), and methicillin-resistant Staphylococcus aureus 04 (MRSA04)) and Gram-negative (Pseudomonas aeruginosa ATCC27853 and Escherichia coli S2(1)) bacteria and yeast strains of Candida albicans ATCC10231 and Cryptococcus neoformans H99. These microorganisms were taken from our laboratory collection. The fungal and bacterial strains were conserved on Sabouraud Dextrose Agar (SDA, Conda, Madrid, Spain) and nutrient agar (NA, Conda) slants, respectively.
(§2) The antimicrobial activity was investigated by determining the minimum inhibitory concentrations (MICs), minimum bactericidal concentrations (MBC), and minimum fungicidal concentrations (MFCs). MICs of extracts/compounds were monitored using the broth microdilution method. Dimethyl sulfoxide (DMSO, Fisher Chemicals) was used to dissolve the test sample to produce a stock solution that was twofold serially diluted in Mueller-Hinton broth (MHB) for bacteria and Sabouraud Dextrose Broth (SDB) for fungi to obtain a concentration range of 4096 to 0.25 μg/mL. One hundred microliters of each concentration was introduced into a well (96-well microplate) containing 90 μL of SDB or MHB and 10 μL of inoculum (at 1 × 10^6 CFU/mL for bacteria and 1 × 10^5 spores/mL for yeasts) which were added to obtain a final concentration range of 2048 to 0.125 μg/mL. Plates were covered and incubated on the shaker at 37°C, 30°C, and 30°C during 24 h, 48 h, and 72 h for bacteria, Candida albicans, and Cryptococcus neoformans, respectively. The MICs were visually assessed after the incubation period and were considered the lowest sample concentration that inhibits the growth or the visual growth of the organism.
(§3) The positive controls were oxacillin (Sigma-Aldrich, Steinheim, Germany) for bacteria and nystatin (Sigma-Aldrich, Steinheim, Germany) for yeasts, and the negative control was broth with 20 μL of DMSO. The assay was carried out in triplicate.
(In broth dilution the organism is exposed to a series of concentrations in liquid medium.)

The test system of test [4] is Pseudomonas aeruginosa ATCC27853. Put plainly: Broth microdilution MIC/MMC. In kind it is cell-based. The settings on record: for MBC / MMC/MIC: Pseudomonas aeruginosa ATCC27853; for MIC: Pseudomonas aeruginosa ATCC27853, 24 h, 37°C, read-out: MIC. The method, then:
as §1, §2, §3

In test [5] the test system is Cryptococcus neoformans H99. Put plainly: Broth microdilution MIC/MMC. In kind it is cell-based. The note with it: for MFC / MMC/MIC: Cryptococcus neoformans H99; for MIC: Cryptococcus neoformans H99, 72 h, 30°C, read-out: MIC. The method, then: as §1, §2, §3
For test [6], the system named is Escherichia coli S2(1). Briefly: Broth microdilution MIC/MMC. In kind it is cell-based. The note with it: for MIC: 24 h, 37°C, read-out: MIC. The method, then: as §1, §2, §3
Test [7] has as its system Candida albicans ATCC10231. Briefly: Broth microdilution MIC/MMC. Type of test: cell-based. The settings on record: for MIC: Candida albicans ATCC10231, 48 h, 30°C, read-out: MIC. The method, then: as §1, §2, §3
The test system of test [8] is methicillin-resistant Staphylococcus aureus 04 (MRSA04). Briefly: Broth microdilution MIC/MMC. In kind it is cell-based. The settings on record: for MBC / MIC: Staphylococcus aureus; for MIC: MRSA04, 24 h, 37°C, read-out: MIC. The method, then: as §1, §2, §3
Test [9] deals with Staphylococcus aureus ATCC25923. Put plainly: Broth microdilution MIC/MMC. In kind it is cell-based. The note with it: for MBC / MMC/MIC: Staphylococcus aureus ATCC25923; for MIC: Staphylococcus aureus ATCC25923, 24 h, 37°C, read-out: MIC. The method, then: as §1, §2, §3
For test [10], the system named is tested bacteria and yeasts. Put plainly: Broth microdilution MIC/MMC, summary over all strains. Type of test: cell-based. The note with it: for antimicrobial activity class of pure compounds by cutoff points: against specific microorganism, cutoff points of ref 33; for antimicrobial activity: against the tested microorganisms; for MIC: read-out: MIC (range over the tested microorganisms). The method, then: as §1, §2, §3

The structures appear in SMILES notation. Converted amounts (≈) assume the structure as drawn. Marks after values point to notes of the source that are not given here. Where only a bound is given, the exact number is not on record here.

What is called MBC is the smallest concentration meeting the test's criterion for killing. Low values mean more potent killing, high ones less potent killing. For orientation: MIC means the lowest concentration found to suppress growth. With `CO[C@@H]1O[C@H](CO)[C@@H](O)[C@H](O)[C@H]1O` [compound 7, 1-methyl-β-D-glucopyranoside], the “activity in DPPH assay” value in test [1] is “inactive”. For the same molecule, the “activity in TEAC assay” value in test [2] was “inactive”. The MBC in test [3] (MRSA03), in test [4], in test [6], in test [8] (MRSA04) and in test [9] was over 256 µg/mL each time. For the same molecule, the MIC in test [3], in [4], in test [5], in test [6], in test [7] and in test [8] was over 256 µg/mL in each case. Also, the minimal inhibitory concentration (MIC) in test [9] and in [10] was over 256 µg/mL each time. Moreover, the MFC in test [5] and in test [7] (Candida albicans ATCC10231) was over 256 µg/mL throughout. For the same molecule, in [10], the “antimicrobial activity class of pure compounds by cutoff points” value (shortened to “antimicrobial activity class”) is on record as “not active”. The “antimicrobial activity” value in [10] is on record as “not active”.
For `CC1(C)CC(O)C2(C)CCC3(C)C(=CCC4C5(C)CCC(OC6OC(C(=O)O)C(O)C(O)C6O)C(C)(CO)C5CCC43C)C2C1` [compound 10, 3-O-β-D-glucuronopyranosylsoyasapogenol B], the “activity in DPPH assay” value in test [1] was “inactive”. Also, in test [2], the “activity in TEAC assay” value was “inactive”. In addition, the MBC in test [3] (MRSA03), in test [4], in test [6], in test [8] (MRSA04) and in test [9] was over 256 µg/mL each time. Further, the MIC was over 256 µg/mL in [3]; 256 µg/mL (≈ 403 µM) in test [4]; 256 µg/mL (≈ 403 µM) in test [5]; 256 µg/mL (≈ 403 µM) in test [6]; over 256 µg/mL in test [7]; over 256 µg/mL in [8]. Further, the values for the MIC in [9] and in test [10] were 256 µg/mL (≈ 403 µM) and at least 256 µg/mL, respectively. For the same molecule, the MFC in [5] and in test [7] (Candida albicans ATCC10231) was over 256 µg/mL in each case. The “antimicrobial activity class” value in test [10] is “low/not active”. In addition, in test [10], the “antimicrobial activity” value is given as “low activity”.
For the molecule `COc1ccc(-c2coc3cc(OC4OC(CO)C(O)C(O)C4O)cc(O)c3c2=O)cc1` (stereo not shown) [compound 6, sissotrin], the “DPPH free radical scavenging activity (EC50)” value in test [1] is reported as 7.13 ± 0.97^e μg/mL. Also, the “Gallic acid equivalent antioxidant capacity (GEAC)” value in test [2] is reported as 72.96 ± 1.54^i μg/mL. In addition, the MBC was over 256 µg/mL in [3] (MRSA03); 256 µg/mL (≈ 573 µM) in [4]; 128 µg/mL (≈ 287 µM) in test [6]; over 256 µg/mL in test [8] (MRSA04); 128 µg/mL (≈ 287 µM) in [9]. Moreover, the MIC in [3] came out at 256 µg/mL (≈ 573 µM); in test [4] it was 128 µg/mL (≈ 287 µM); in test [5], 32 µg/mL (≈ 71.7 µM); in test [6], 64 µg/mL (≈ 143 µM); in [7], 64 µg/mL (≈ 143 µM); in [8] it was 256 µg/mL (≈ 573 µM). For the same molecule, the MIC is 64 µg/mL (≈ 143 µM) in test [9] and 32 to 256 µg/mL (≈ 71.7 to 573 µM) in test [10]. For the same molecule, the MMC/MIC was 2 in test [4], 8 in [5], 2 in test [6] and 2 in [9]. Besides, the figures for the MFC in test [5] and in [7] (Candida albicans ATCC10231) were 256 µg/mL (≈ 573 µM) and over 256 µg/mL, respectively. In [10], the “antimicrobial activity class” value was “moderate/low”.
With `COc1ccc(-c2coc3cc(O)cc(O)c3c2=O)cc1` [compound 1, biochanin A], the “DPPH free radical scavenging activity (EC50)” value in test [1] is 4.87 ± 0.43^d μg/mL. Moreover, the “Gallic acid equivalent antioxidant capacity (GEAC)” value in [2] is reported as 101.77 ± 1.24^d μg/mL. Besides, the MMC/MIC in [3] (MRSA03) was found to be 2; in test [4], 2; in test [5], 1; in test [6] it was 2; in [7] (Candida albicans ATCC10231), 2; in [8] (MRSA04) it was 2. Further, the MMC/MIC in [9] is on record as 1. The MBC worked out at 128 µg/mL (≈ 450 µM) in test [3] (MRSA03); 64 µg/mL (≈ 225 µM) in test [4]; 64 µg/mL (≈ 225 µM) in test [6]; 128 µg/mL (≈ 450 µM) in test [8] (MRSA04); 32 µg/mL (≈ 113 µM) in test [9]. Also, the MIC came to 64 µg/mL (≈ 225 µM) in [3]; 32 µg/mL (≈ 113 µM) in test [4]; 32 µg/mL (≈ 113 µM) in test [5]; 32 µg/mL (≈ 113 µM) in test [6]; 32 µg/mL (≈ 113 µM) in [7]; 64 µg/mL (≈ 225 µM) in [8]. For the same molecule, the MIC in test [9] is 32 µg/mL (≈ 113 µM); in test [10], 32 to 64 µg/mL (≈ 113 to 225 µM). The results for the MFC in [5] and in test [7] (Candida albicans ATCC10231) were 32 µg/mL (≈ 113 µM) and 64 µg/mL (≈ 225 µM), respectively. Further, the “antimicrobial activity class” value in test [10] was “moderate”.
